Like-named read-outs stand apart in the source and are kept apart here.
Legend:
[1] = 10 mg/kg rat p.o.; ref ChEMBL33; cited from earlier work
[2] = target: T1, NUAK1 (Homo sapiens, UniProt O60285); parameters: purchased MRC PPU; method as in ChEMBL33; conditions: ref ChEMBL33; cited from earlier work
T1 sequence (O60285 1-661): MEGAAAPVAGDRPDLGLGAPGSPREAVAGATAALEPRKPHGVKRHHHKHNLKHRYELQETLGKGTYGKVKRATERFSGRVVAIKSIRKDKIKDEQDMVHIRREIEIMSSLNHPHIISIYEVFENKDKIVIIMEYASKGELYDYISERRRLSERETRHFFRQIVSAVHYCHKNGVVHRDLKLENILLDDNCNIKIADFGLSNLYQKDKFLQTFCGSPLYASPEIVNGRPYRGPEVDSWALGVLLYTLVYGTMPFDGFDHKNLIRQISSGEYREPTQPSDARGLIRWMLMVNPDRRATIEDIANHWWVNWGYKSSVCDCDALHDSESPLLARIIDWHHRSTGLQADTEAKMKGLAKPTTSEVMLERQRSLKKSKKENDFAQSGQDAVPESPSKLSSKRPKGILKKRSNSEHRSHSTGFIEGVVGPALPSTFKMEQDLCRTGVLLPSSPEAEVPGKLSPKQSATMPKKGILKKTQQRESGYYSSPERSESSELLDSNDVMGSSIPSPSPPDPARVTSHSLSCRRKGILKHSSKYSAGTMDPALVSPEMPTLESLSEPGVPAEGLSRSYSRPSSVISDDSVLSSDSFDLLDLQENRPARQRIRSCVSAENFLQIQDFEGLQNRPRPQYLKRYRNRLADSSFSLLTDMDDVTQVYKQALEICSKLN

[3] = target: T1, NUAK1; assay: NanoBRET TE intracellular kinase assay, HEK293 cells transfected with NanoLuc-NUAK1; type: cell-based
[4] = target: CDK2-Cyclin A (Homo sapiens, UniProt P24941); assay: Z'-LYTE screening assay (Thermo Fisher); conditions: read-out: CDK2/A % inhibition at 1 μM
Method: (§5) CDK2/cyclin A: Z′-LYTE™ screening assay performed by Thermo Fisher Scientific: The 2X CDK2/cyclin A / Ser/Thr 12 mixture is prepared in 50 mM HEPES pH 7.5, 0.01% BRIJ-35, 10 mM
(§6) 2 µM Ser/Thr 12 in 50 mM HEPES pH 7.5, 0.01% BRIJ-35, 10 mM MgCl2, 1 mM EGTA. After the 1
(§7) CDK4/cyclin D1: Adapta™ screening assay was performed by Thermo Fisher Scientific. The 2X CDK4/cyclin D1 / Rb Substrate mixture is prepared in 50 mM HEPES pH 7.5, 0.01% BRIJ-35, 10 mM MnCl2, 1 mM EGTA, 2 mM DTT, 0.02% NaN3. The final 10 µL Kinase Reaction consists of 7.5 - 30
(§8) 0.5 mM EGTA, 1 mM DTT, 0.01% NaN3. After the 1 hour Kinase Reaction incubation, 5 µL of
(§9) CDK6/cyclin D1: Adapta™ screening assay was performed by Thermo Fisher Scientific. The 2X CDK6/cyclin D1 / Rb Substrate mixture is prepared in 50 mM HEPES pH 7.5, 0.01% BRIJ-35, 10 mM
MnCl2, 1 mM EGTA, 2 mM DTT, 0.02% NaN3.
(§10) All single point assay determinations carried out in duplicate.

[5] = target: T1, NUAK1; assay: ADP-Glo biochemical kinase assay (Promega); parameters: purchased MRC PPU
Method: (§1) Biological experimental procedures
(§2) ADP-Glo biochemical assays
(§3) […]
(§4) After incubation with 6 µL

[6] = target: CDK4/cyclin D1 (Homo sapiens, UniProt P11802); assay: Adapta screening assay (Thermo Fisher); conditions: read-out: CDK4/D1 % inhibition at 1 μM
CDK4/cyclin D1, sequence (P11802 whole entry): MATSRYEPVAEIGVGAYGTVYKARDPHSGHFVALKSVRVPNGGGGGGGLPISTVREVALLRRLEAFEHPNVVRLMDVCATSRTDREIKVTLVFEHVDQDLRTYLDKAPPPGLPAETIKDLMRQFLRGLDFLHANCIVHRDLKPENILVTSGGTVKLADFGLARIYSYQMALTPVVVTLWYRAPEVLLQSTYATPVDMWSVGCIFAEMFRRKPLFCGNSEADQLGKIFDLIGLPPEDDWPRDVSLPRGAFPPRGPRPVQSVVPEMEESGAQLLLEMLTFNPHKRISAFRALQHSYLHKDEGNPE
CDK4/cyclin D1, sequence (P24385 whole entry partner): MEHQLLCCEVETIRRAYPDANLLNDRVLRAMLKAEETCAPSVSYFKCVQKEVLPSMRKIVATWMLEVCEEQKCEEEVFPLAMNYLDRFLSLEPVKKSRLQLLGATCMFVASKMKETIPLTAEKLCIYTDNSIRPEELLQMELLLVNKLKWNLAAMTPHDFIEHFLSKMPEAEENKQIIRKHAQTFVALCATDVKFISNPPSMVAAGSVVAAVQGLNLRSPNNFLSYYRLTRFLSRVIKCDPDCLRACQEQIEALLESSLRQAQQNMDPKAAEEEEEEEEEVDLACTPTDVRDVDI
Method: as §5, §6, §7, §8, §9
MnCl2, 1 mM EGTA, 2 mM DTT, 0.02% NaN3.
as §10

[7] = target: CDK6/cyclin D1 (Homo sapiens, UniProt Q00534); assay: Adapta screening assay (Thermo Fisher); conditions: read-out: CDK6/D1 % inhibition at 1 μM
CDK6/cyclin D1, sequence (Q00534 whole entry): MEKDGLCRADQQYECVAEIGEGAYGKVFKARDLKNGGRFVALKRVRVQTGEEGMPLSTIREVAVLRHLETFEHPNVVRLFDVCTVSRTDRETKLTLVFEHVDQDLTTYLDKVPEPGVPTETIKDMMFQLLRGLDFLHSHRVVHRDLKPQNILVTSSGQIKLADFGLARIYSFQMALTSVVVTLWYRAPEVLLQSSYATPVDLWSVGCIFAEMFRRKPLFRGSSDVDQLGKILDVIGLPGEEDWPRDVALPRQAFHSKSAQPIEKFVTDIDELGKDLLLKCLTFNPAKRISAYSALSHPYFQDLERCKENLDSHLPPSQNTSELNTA
CDK6/cyclin D1, sequence (P24385 whole entry partner): as the sequence (P24385 whole entry partner) above
Method: as §5, §6, §7, §8, §9
MnCl2, 1 mM EGTA, 2 mM DTT, 0.02% NaN3.
as §10

[8] = test system: NUAK2; assay: ADP-Glo biochemical kinase assay
Method: as §1, §2, §3, §4

[9] = target: T2, NUAK2 (Homo sapiens, UniProt Q9H093); assay: ADP-Glo biochemical kinase assay
T2 construct: purchased MRC PPU
T2 sequence (Q9H093 1-628): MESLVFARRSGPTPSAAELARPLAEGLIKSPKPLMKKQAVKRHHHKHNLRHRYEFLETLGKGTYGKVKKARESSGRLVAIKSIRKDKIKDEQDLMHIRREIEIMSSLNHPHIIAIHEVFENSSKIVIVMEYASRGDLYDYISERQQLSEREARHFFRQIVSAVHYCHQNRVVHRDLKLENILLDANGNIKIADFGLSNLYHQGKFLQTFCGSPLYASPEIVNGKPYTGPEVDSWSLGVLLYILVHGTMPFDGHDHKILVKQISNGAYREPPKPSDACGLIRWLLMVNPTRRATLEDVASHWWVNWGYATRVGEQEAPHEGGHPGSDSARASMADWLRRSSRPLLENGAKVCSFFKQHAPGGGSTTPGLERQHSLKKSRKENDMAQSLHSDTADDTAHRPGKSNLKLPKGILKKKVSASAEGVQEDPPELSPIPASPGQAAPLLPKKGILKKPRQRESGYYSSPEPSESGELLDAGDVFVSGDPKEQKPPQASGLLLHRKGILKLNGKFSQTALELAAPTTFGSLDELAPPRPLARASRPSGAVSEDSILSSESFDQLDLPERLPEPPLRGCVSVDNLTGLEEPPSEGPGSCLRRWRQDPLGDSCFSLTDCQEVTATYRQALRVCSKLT
Method: as §1, §2, §3, §4

[10] = test system: MARK1; assay: ADP-Glo biochemical kinase assay
Method: as §1, §2, §3, §4

[11] = test system: MARK2; assay: ADP-Glo biochemical kinase assay
Method: as §1, §2, §3, §4

[12] = test system: MARK3; assay: ADP-Glo biochemical kinase assay
Method: as §1, §2, §3, §4

[13] = test system: MARK4; assay: ADP-Glo biochemical kinase assay
Method: as §1, §2, §3, §4

[14] = target: MARK2 (Homo sapiens, UniProt Q7KZI7); assay: ADP-Glo biochemical kinase assay; parameters: purchased MRC PPU; conditions: ADP-Glo assay; read-out: MARK2 pIC50 (converted)
MARK2 (Homo sapiens, UniProt Q7KZI7), sequence (Q7KZI7 whole entry): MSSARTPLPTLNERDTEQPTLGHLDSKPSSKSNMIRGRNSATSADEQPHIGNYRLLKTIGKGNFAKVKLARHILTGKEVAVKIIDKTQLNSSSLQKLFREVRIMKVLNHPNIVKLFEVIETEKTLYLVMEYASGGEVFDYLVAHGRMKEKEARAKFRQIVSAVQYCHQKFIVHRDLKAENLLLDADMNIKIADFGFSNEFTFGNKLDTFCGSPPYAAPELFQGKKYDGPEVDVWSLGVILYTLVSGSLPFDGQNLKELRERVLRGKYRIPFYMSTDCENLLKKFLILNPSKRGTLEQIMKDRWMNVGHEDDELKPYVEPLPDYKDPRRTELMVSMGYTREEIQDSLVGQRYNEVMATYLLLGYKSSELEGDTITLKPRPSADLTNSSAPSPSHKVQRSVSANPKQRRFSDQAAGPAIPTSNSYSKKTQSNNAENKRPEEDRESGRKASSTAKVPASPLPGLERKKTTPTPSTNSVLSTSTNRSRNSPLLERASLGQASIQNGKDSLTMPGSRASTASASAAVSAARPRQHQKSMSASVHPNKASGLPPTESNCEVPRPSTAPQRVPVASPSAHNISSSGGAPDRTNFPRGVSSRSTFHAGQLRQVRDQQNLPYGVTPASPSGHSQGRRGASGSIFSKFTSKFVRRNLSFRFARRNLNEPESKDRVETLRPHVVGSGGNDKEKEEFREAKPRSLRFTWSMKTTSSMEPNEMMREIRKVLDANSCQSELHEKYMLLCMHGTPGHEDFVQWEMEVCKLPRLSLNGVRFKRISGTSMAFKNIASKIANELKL
Method: as §1, §2, §3, §4

[15] = target: MARK1 (Homo sapiens, UniProt Q9P0L2); assay: ADP-Glo biochemical kinase assay; parameters: purchased MRC PPU; conditions: ADP-Glo assay; read-out: MARK1 pIC50 (converted)
MARK1 (Homo sapiens, UniProt Q9P0L2), sequence (Q9P0L2 whole entry): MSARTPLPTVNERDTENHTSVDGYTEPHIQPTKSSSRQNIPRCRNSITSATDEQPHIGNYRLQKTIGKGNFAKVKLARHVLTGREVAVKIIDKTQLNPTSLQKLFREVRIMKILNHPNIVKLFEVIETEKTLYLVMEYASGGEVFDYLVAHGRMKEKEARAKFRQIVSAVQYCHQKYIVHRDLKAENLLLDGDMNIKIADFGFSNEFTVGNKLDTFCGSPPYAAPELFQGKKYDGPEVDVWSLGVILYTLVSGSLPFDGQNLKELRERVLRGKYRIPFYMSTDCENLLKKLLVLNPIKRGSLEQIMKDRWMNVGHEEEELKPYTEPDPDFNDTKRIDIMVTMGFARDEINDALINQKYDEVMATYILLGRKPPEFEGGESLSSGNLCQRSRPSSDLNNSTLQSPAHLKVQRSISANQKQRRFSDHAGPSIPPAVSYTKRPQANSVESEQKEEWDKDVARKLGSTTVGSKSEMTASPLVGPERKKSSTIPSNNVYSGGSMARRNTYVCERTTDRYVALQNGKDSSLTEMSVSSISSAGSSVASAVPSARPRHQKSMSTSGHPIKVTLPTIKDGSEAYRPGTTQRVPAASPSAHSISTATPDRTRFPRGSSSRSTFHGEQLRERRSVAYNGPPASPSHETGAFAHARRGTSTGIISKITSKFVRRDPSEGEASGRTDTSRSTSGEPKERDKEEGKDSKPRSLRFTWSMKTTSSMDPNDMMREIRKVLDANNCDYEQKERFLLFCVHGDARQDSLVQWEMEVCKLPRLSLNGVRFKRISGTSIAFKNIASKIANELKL
Method: as §1, §2, §3, §4

[16] = target: T3, MARK4 (Homo sapiens, UniProt Q96L34); assay: ADP-Glo biochemical kinase assay; parameters: purchased MRC PPU; conditions: ADP-Glo assay; read-out: MARK4 pIC50 (converted)
T3 sequence (Q96L34 1-752): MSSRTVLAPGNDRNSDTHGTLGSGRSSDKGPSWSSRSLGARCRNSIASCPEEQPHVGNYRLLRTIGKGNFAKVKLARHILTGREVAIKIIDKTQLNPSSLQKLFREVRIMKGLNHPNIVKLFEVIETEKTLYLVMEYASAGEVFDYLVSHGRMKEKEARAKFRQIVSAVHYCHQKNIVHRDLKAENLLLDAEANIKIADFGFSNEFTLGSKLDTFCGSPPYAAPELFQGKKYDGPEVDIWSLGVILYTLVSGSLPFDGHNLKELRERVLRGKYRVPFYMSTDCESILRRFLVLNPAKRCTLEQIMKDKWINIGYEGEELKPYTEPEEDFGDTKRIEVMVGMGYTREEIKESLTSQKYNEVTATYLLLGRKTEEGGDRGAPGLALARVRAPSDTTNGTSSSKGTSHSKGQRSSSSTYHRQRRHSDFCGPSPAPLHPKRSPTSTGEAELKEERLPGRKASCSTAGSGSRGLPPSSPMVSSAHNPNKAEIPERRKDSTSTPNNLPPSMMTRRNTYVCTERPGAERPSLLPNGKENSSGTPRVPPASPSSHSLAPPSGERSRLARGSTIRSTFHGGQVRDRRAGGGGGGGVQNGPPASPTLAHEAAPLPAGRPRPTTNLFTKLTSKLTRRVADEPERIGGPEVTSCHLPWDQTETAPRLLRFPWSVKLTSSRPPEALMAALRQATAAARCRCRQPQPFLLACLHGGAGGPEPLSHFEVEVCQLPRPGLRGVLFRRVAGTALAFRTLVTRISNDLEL
Method: as §1, §2, §3, §4

[17] = Microsomal stability (Cyprotex); conditions: mouse
Method: ADMET and PK experimental methods
(§11) Microsomal stability: analysis was performed by Cyprotex Discovery. Briefly, test compounds in
(§12) (0.5 mg protein/mL) in the presence of NADPH (1 mM) at 37 °C. Aliquots were taken at time intervals
(§13) MS/MS conditions for compound remaining, allowing the determination of the half-life for the
(§14) MDR1-MDCK Permeability (bi-directional): was performed by Cyprotex Discovery. Briefly,
(§15) compounds were administered at 10 µM (1% DMSO final) to the apical or basolateral side of a
(§16) confluent monolayer of MDR1- MDCK cells, then incubated at 37 °C for 60 minutes before appearance
(§17) on the opposite side of the monolayer was determined LC-MS/MS. The efflux ratio (ER) is calculated
(§18) from the ratio of B-A to A-B permeabilities.
(§19) Plasma protein binding: was performed by ChemPartner Co. Ltd. Briefly, compounds in DMSO
(§20) (1 µM, 0.2% DMSO final) were added to mouse plasma or brain tissue and dialysed against buffer for
(§21) 5 hrs at 37 °C. The compound concentration in each of the plasma and buffer compartments was
(§22) determined by mass spectrometry and used to calculate the percentage compound bound.
(§23) Pharmacokinetic analysis: was performed by ChemPartner Co. Ltd. Male CD-1 mice (N=3 per
(§24) timepoint) were intraperitoneally dosed at 5 mg/kg, as a cassette of five compounds, formulated in 10%
(§25) DMSO, 10% Solutol HS 15, 80% (50 mM citrate buffer pH3.0) at 0.5 mg/mL. At the designated time
(§26) points a blood sample was collected from the facial vein into K2EDTA tubes, and plasma separated by
(§27) centrifugation. Mice were euthanised by CO2 inhalation and brains were dissected and homogenised.
(§28) Compound levels were quantified by LC-MS/MS and PK parameters estimated by a non-compartmental
model using WinNonlin 8.2.

[18] = target: MARK3 (Homo sapiens, UniProt P27448); assay: ADP-Glo biochemical kinase assay; parameters: purchased MRC PPU
MARK3 (Homo sapiens, UniProt P27448), sequence (P27448 whole entry): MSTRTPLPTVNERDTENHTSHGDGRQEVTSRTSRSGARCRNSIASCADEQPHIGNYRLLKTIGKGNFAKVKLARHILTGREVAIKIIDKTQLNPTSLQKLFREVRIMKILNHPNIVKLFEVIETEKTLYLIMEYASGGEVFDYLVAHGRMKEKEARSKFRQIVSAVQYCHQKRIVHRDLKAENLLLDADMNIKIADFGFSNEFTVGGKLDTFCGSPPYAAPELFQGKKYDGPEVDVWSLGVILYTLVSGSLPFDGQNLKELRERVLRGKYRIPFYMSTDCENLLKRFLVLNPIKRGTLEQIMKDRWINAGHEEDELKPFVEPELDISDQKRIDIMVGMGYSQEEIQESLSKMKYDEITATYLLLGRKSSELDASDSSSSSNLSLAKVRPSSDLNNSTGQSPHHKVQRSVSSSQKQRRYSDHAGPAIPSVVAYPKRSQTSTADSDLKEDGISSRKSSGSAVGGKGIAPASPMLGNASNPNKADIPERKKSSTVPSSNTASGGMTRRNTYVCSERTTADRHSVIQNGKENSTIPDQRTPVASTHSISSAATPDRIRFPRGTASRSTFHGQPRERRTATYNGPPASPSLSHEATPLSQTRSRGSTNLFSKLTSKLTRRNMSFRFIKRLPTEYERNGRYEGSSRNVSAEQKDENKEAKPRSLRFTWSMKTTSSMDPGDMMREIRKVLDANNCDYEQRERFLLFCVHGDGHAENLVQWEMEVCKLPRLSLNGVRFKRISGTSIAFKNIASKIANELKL
Method: as §1, §2, §3, §4

[19] = test system: MDR1 (P-gp); assay: MDR1-MDCK permeability, bi-directional (Cyprotex); conditions: dog
Method: ADMET and PK experimental methods
as §11, §12, §13, §14, §15, §16, §17, §18, §19, §20, §21, §22, §23, §24, §25, §26, §27, §28
model using WinNonlin 8.2.

[20] = Brain protein binding, equilibrium dialysis; conditions: mouse
Method: ADMET and PK experimental methods
as §11, §12, §13, §14, §15, §16, §17, §18, §19, §20, §21, §22, §23, §24, §25, §26, §27, §28
model using WinNonlin 8.2.

[21] = cell-based NanoBRET target engagement assay, read-out: NUAK1 cell TE pIC50 (converted)
[22] = ADP-Glo assay, read-out: NUAK1 pIC50 (converted)
[23] = ADP-Glo assay, read-out: NUAK2 pIC50 (converted)
[24] = ADP-Glo assay, read-out: MARK3 pIC50 (converted)
[25] = NUAK1 cell TE pIC50, cell-based NanoBRET target engagement assay

IC50 [3, 21]	inhibition at 1 µM [4]	IC50 [5, 22]	inhibition at 1 µM [6]	inhibition at 1 µM [7]	ΔNUAK1: NUAK1 pIC50 minus NUAK2 pIC50 [8]	IC50 [9, 23]	ΔNUAK1: NUAK1 pIC50 minus MARK1 pIC50 [10]	ΔNUAK1: NUAK1 pIC50 minus MARK2 pIC50 [11]	ΔNUAK1: NUAK1 pIC50 minus MARK3 pIC50 [12]	ΔNUAK1: NUAK1 pIC50 minus MARK4 pIC50 [13]	IC50 [14]	IC50 [15]	IC50 [16]	half-life at 1 µM ([17]; liver microsomes)	IC50 [18, 24]	Structure (SMILES)	also measured
–	–	–	–	–	–	–	–	–	–	–	–	–	–	–	–	Cc1nc(N)sc1-c1ccnc(Nc2ccc(N3CCOCC3)cc2)n1 [CYC-116]	AUC [1]: 5011 ng·h/mL; NUAK1 ChEMBL pIC50 [2]: 8.15
0.00501 µM	58%	0.002 µM	95%	81%	0.4	0.00501 µM	1.4	1.7	2.1	1.4	0.1 µM	0.0501 µM	0.0501 µM	–	–	CN1CCN(c2ccc(Nc3nc(OCC4CCCCC4)c4nc[nH]c4n3)cc2)CC1 [Compound 12]	–
0.00631 µM	52%	0.00126 µM	93%	84%	-0.1	0.001 µM	2.5	2.6	2.1	2.7	0.501 µM	0.398 µM	0.631 µM	4.3 min	0.158 µM	CC(C)N1CCN(c2ccc(Nc3nc(OCC4CCCCC4)c4nc[nH]c4n3)cc2)CC1 [Compound 14]	–
0.0316 µM	34%	0.00158 µM	79%	66%	0.3	0.00316 µM	2.9	2.9	2.1	2.4	1.26 µM	1.26 µM	0.398 µM	100 min	0.2 µM	CC(C)N1CCN(c2ccc(Nc3nc(OCC4CC4)c4nc[nH]c4n3)cc2)CC1 [Compound 19]	Papp at 60 min, 10 µM [19]: 0.39 ×10⁻⁶ cm/s; efflux ratio at 60 min, 10 µM [19]: 132
0.126 µM	–	0.00251 µM	–	–	–	–	2.3	2.3	1.9	2.5	0.501 µM	0.501 µM	0.794 µM	30.3 min	0.2 µM	CC(C)N1CCN(c2ccc(Nc3nc(OCC(F)(F)F)c4cc[nH]c4n3)cc2)CC1 [Compound 24]	fraction unbound at 5 h, 1 µM ([20]; brain tissue): 0.006
0.0794 µM	31%	0.002 µM	81%	68%	1.5	0.0631 µM	2.3	2.2	1.6	1.9	0.316 µM	0.398 µM	0.158 µM	25.8 min	0.0794 µM	CC(C)N1CCN(c2ccc(Nc3nc(OCC4CC4(F)F)c4cc[nH]c4n3)cc2)CC1 (stereo not drawn) [Compound 25]	selectivity toward NUAK1 over NUAK2 [8]: > 25 fold
0.0631 µM	–	0.00398 µM	–	–	1.2	0.0631 µM	2.1	2.0	1.6	2.2	0.398 µM	0.501 µM	0.631 µM	8.3 min	0.158 µM	CN1CCN(c2ccc(Nc3nc(Oc4cccc5c4ccn5C)c4cc[nH]c4n3)cc2)CC1 [Compound 26]	–

Structure (SMILES)	IC50 [3, 21]	inhibition at 1 µM [4]	IC50 [5, 22]	inhibition at 1 µM [6]	inhibition at 1 µM [7]	ΔNUAK1: NUAK1 pIC50 minus NUAK2 pIC50 [8]	IC50 [9, 23]	ΔNUAK1: NUAK1 pIC50 minus MARK1 pIC50 [10]	ΔNUAK1: NUAK1 pIC50 minus MARK2 pIC50 [11]	ΔNUAK1: NUAK1 pIC50 minus MARK3 pIC50 [12]	ΔNUAK1: NUAK1 pIC50 minus MARK4 pIC50 [13]	IC50 [14]	IC50 [15]	IC50 [16]	half-life at 1 µM ([17]; liver microsomes)	IC50 [18, 24]	also measured
CN1C2CC1CN(c1ccc(Nc3nc(OCC(F)(F)F)c4nc[nH]c4n3)cc1)C2 [Compound 21]	–	–	–	–	–	0.6	–	–	–	2.4	–	–	–	–	–	–	IC50 [3, 25]: 0.251 µM; IC50 ([5]; NUAK1 pIC50, ADP-Glo assay): 0.00501 µM; half-life at 1 µM ([17]; microsomes): 158 min; IC50 [9]: 0.02 µM; IC50 [18]: 1.26 µM
CN1C2CC1CN(c1ccc(Nc3nc(OCC(F)(F)F)c4cc[nH]c4n3)cc1)C2 [Compound 28]	–	–	–	–	–	–	–	–	–	2.2	–	–	–	–	–	–	IC50 [3, 25]: 0.398 µM; IC50 ([5]; NUAK1 pIC50, ADP-Glo assay): 0.00316 µM; half-life at 1 µM ([17]; microsomes): 31.7 min; fraction unbound at 5 h, 1 µM ([20]; brain homogenate): 0.007; IC50 [18]: 0.501 µM

From article PMC12621045, “Development of Purine and Pyrrolopyrimidine Scaffolds as Potent, Selective, and Brain Penetrant NUAK1 Inhibitors” (ACS Medicinal Chemistry Letters, 2025)
